PMC9775322, “An Integrated Analysis of Mechanistic Insights into Biomolecular Interactions and Molecular Dynamics of Bio-Inspired Cu(II) and Zn(II) Complexes towards DNA/BSA/SARS-CoV-2 3CL^pro by Molecular Docking-Based Virtual Screening and FRET Detection” (Biomolecules, 2022)

How the values were obtained:
[1] = test system: Chromo bacterium violaceum; assay: Agar disc diffusion antibacterial test; conditions: for Inhibition %: C, (-) Chromo bacterium violaceum, (T–C)/T × 100; for zone of inhibition at 100 µM: read-out: diameter of clear zone inhibition
Staphylococcus Aureus = assay: Agar disc diffusion antibacterial test; conditions: for Inhibition %: F, (+) Staphylococcus Aureus, (T–C)/T × 100; for zone of inhibition at 100 µM: Staphylococcus aureus, read-out: diameter of clear zone inhibition
Pseudomonas aeruginosa = assay: Agar disc diffusion antibacterial test; conditions: for Inhibition %: D, (-) Pseudomonas aeruginosa, (T–C)/T × 100; for zone of inhibition at 100 µM: Pseudomonas aeruginosa, read-out: diameter of clear zone inhibition
[2] = test system: Salmonella enteric serovar typhi; assay: Agar disc diffusion antibacterial test; format: cell-based; conditions: B; for zone of inhibition at 100 µM: 20 µL of 100 µM on 6 mm disc, Control (DMSO) = 6 mm, read-out: diameter of clear zone inhibition; for Inhibition %: (T–C)/T × 100
Bacillus cereus = assay: Agar disc diffusion antibacterial test; conditions: for zone of inhibition at 100 µM: Bacillus cereus, read-out: diameter of clear zone inhibition; for Inhibition %: G, (+) Bacillus cereus, (T–C)/T × 100
Escherichia coli = assay: Agar disc diffusion antibacterial test; conditions: for Inhibition %: A, (-) Escherichia coli, (T–C)/T × 100; for zone of inhibition at 100 µM: Escherichia coli, read-out: diameter of clear zone inhibition
Shigella flexneri = assay: Agar disc diffusion antibacterial test; conditions: for Inhibition %: E, (-) Shigella flexneri, (T–C)/T × 100; for zone of inhibition at 100 µM: Shigella flexneri, read-out: diameter of clear zone inhibition
Mucor indicus = assay: Agar disc diffusion antifungal test; conditions: for Inhibition %: J, (T–C)/T × 100; for zone of inhibition at 100 µM: read-out: diameter of clear zone inhibition
Aspergillus niger = assay: Agar disc diffusion antifungal test; conditions: for Inhibition %: H, (T–C)/T × 100; for zone of inhibition at 100 µM: read-out: diameter of clear zone inhibition
Candida albicans = assay: Agar disc diffusion antifungal test; conditions: for Inhibition %: I, (T–C)/T × 100; for zone of inhibition at 100 µM: read-out: diameter of clear zone inhibition
[3] = DPPH radical scavenging assay; format: biochemical; conditions: 517 nm
[4] = Hydroxyl radical scavenging assay; format: biochemical; conditions: 230 nm
[5] = Nitric oxide scavenging assay; format: biochemical; conditions: 546 nm
[6] = Superoxide scavenging assay; format: biochemical; conditions: 590 nm
[7] = test system: NHDF Normal human dermal fibroblasts cell line; assay: MTT cell viability assay; format: cell-based; conditions: 72 h exposure
[8] = test system: A549 Human lung cancer cell line; assay: MTT cell viability assay; format: cell-based; conditions: 72 h exposure, at least three independent experiments
[9] = test system: HepG2 Liver cancer cell line; assay: MTT cell viability assay; format: cell-based; conditions: 72 h exposure, at least three independent experiments
[10] = test system: MCF-7 Breast cancer cell line; assay: MTT cell viability assay; format: cell-based; conditions: 72 h exposure, at least three independent experiments
CT-DNA = assay: DNA binding affinity by viscometric (hydrodynamic) titration; parameters: species or system calf; conditions: for Relative Specific Viscosity (η/η0)^1/3: DNA 100 µM; for Slope of (η/η0)^1/3 vs [Compound]/[DNA]: linear plot, R 0.2–1.0
Description: The hydrodynamic titrations were carried out for all substances along with ethidium bromide (control) at 20, 40, 60, 80, 100 µM concentrations. In the Ostwald viscometer, these substances were also separately treated with the deoxyribonucleic acid solution (100 µM).
2.2.4. Viscometry-based titration for investigation of DNA binding
The Viscometry-based titration measurements were further supportive and delivered data about the binding modes between test compound and DNA base pairs. Nevertheless, it does not deliver definite confirmation for the exact mode of interactions. The experiment performed for all test compounds and ethidium bromide (control) at various concentrations 20, 40, 60, 80, 100 µM and each compound mixed with the CT-DNA solution (100 µM) in the Ostwald viscometer. With an accuracy of 0.01 seconds, a digital stopwatch was used to measure the average flow time. Due to the enhancement of the DNA's overall contour length during the separation of base pairs at intercalation sites, the classical intercalative mode […]
Generally, the compounds may result in less positive/negative or no viscosity change if they bind with DNA base pairs via […]
major or minor grooves [ 26]. […]
compounds via intercalation.

`NCC[C@H](O)C(=O)N[C@@H]1C[C@H](N)[C@@H](O[C@H]2O[C@H](CN)[C@@H](O)[C@H](O)[C@H]2O)[C@H](O)[C@H]1O[C@H]1O[C@H](CO)[C@@H](O)[C@H](N)[C@H]1O` [Amikacin, reference compound] showed an Inhibition % [1] of 75%, a zone of inhibition at 100 µM [1] of 24 mm and an Inhibition % (Staphylococcus Aureus) of 70%. For the same compound, the zone of inhibition at 100 µM (Staphylococcus Aureus) was 20 mm, the Inhibition % (Pseudomonas aeruginosa) was 70% and the zone of inhibition at 100 µM (Pseudomonas aeruginosa) was 20 mm. The zone of inhibition at 100 µM [2] was 22 mm, the Inhibition % [2] was 73% and the zone of inhibition at 100 µM (Bacillus cereus) was 20 mm. For the same compound, the Inhibition % (Bacillus cereus) was 70%, the Inhibition % (Escherichia coli) was 73% and the zone of inhibition at 100 µM (Escherichia coli) was 22 mm. It also gave an Inhibition % (Shigella flexneri) of 70% and a zone of inhibition at 100 µM (Shigella flexneri) of 20 mm.
With `C[C@@H]1[C@H](O)[C@@H](C)/C=C/C=C/C=C/C=C/C=C/C=C/C=C/[C@H](O[C@@H]2O[C@H](C)[C@@H](O)[C@H](N)[C@@H]2O)C[C@@H]2O[C@](O)(C[C@@H](O)C[C@@H](O)[C@H](O)CC[C@@H](O)C[C@@H](O)CC(=O)O[C@H]1C)C[C@H](O)[C@H]2C(=O)O` [Amphotericin B, reference compound] the Inhibition % (Mucor indicus) was 65%, the zone of inhibition at 100 µM (Mucor indicus) was 17 mm and the Inhibition % (Aspergillus niger) was 60%. It also gave a zone of inhibition at 100 µM (Aspergillus niger) of 15 mm, an Inhibition % (Candida albicans) of 65% and a zone of inhibition at 100 µM (Candida albicans) of 17 mm.
In the case of `O=C1O[C@H]([C@@H](O)CO)C(O)=C1O` [Ascorbic acid, ascorbic acid, reference compound], the “% Inhibition, DPPH” value ([3]; 40 µM) is reported as 41.63%, the “% Inhibition, DPPH” value ([3]; 80 µM) is reported as 53.74% and the “% Inhibition, DPPH” value ([3]; 120 µM) is reported as 58.95%. The “% Inhibition, DPPH” value ([3]; 160 µM) was 70.86%, the “% Inhibition, DPPH” value ([3]; 200 µM) was 82.75% and the “% Inhibition, DPPH” value ([3]; 240 µM) was 85.65%. The IC50 [3] was 80 µM, the “% Inhibition, hydroxyl radical” value ([4]; 40 µM) was 20.73% and the “% Inhibition, hydroxyl radical” value ([4]; 80 µM) was 36.46%. The “% Inhibition, hydroxyl radical” value ([4]; 120 µM) was 47.87%, the “% Inhibition, hydroxyl radical” value ([4]; 160 µM) was 59.65% and the “% Inhibition, hydroxyl radical” value ([4]; 200 µM) was 65.64%. For the same compound, the “% Inhibition, hydroxyl radical” value ([4]; 240 µM) was 78.83%, the IC50 ([4]; read-out: IC50, hydroxyl radical inhibition) was 160 µM and the “% Inhibition, nitric oxide” value ([5]; 40 µM) was 28.55%. For the same compound, the “% Inhibition, nitric oxide” value ([5]; 80 µM) was 35.75%, the “% Inhibition, nitric oxide” value ([5]; 120 µM) was 43.65% and the “% Inhibition, nitric oxide” value ([5]; 160 µM) was 52.68%. The “% Inhibition, nitric oxide” value ([5]; 200 µM) was 63.72%, the “% Inhibition, nitric oxide” value ([5]; 240 µM) was 72.73% and the “% Inhibition, superoxide” value ([6]; 40 µM) was 29.64%. The “% Inhibition, superoxide” value ([6]; 80 µM) was 41.72%, the “% Inhibition, superoxide” value ([6]; 120 µM) was 55.63% and the “% Inhibition, superoxide” value ([6]; 160 µM) was 66.75%. For the same compound, the “% Inhibition, superoxide” value ([6]; 200 µM) was 72.55%, the “% Inhibition, superoxide” value ([6]; 240 µM) was 84.85% and the IC50 [6] was 120 µM.
`N.N.[Cl][Pt][Cl]` [Cisplatin, cisplatin, reference compound] gave an IC50 [7] of 26.9 ± 1.3 µM, an IC50 [8] of 31.9 ± 1.6 µM and an IC50 [9] of 22.9 ± 1.1 µM. The IC50 [10] was 20.2 ± 1 µM.
In the case of `CC[n+]1c(-c2ccccc2)c2cc(N)ccc2c2ccc(N)cc21` [EB, ethidium bromide, reference compound], the “Relative Specific Viscosity (η/η0)^1/3” value (CT-DNA; R = [Complex]/[DNA] = 0.2) is reported as 1.01, the “Relative Specific Viscosity (η/η0)^1/3” value (CT-DNA; R = [Complex]/[DNA] = 0.4) is reported as 1.35 and the “Relative Specific Viscosity (η/η0)^1/3” value (CT-DNA; R = [Complex]/[DNA] = 0.6) is reported as 1.63. The “Relative Specific Viscosity (η/η0)^1/3” value (CT-DNA; R = [Complex]/[DNA] = 0.8) was 1.82, the “Relative Specific Viscosity (η/η0)^1/3” value (CT-DNA; R = [Complex]/[DNA] = 1.0) was 1.99 and the “Slope of (η/η0)^1/3 vs [Compound]/[DNA]” value (CT-DNA) was 1.2859. The “Slope of (η/η0)^1/3 vs [Compound]/[DNA]” value (CT-DNA; listed as (EB)) was 1.286.
`CC(=O)N1CCN(c2ccc(OCC3COC(Cn4ccnc4)(c4ccc(Cl)cc4Cl)O3)cc2)CC1` (stereo not drawn) [Ketoconazole, reference compound] gave an Inhibition % (Mucor indicus) of 67%, a zone of inhibition at 100 µM (Mucor indicus) of 18 mm and an Inhibition % (Aspergillus niger) of 63%. For the same compound, the zone of inhibition at 100 µM (Aspergillus niger) was 16 mm, the Inhibition % (Candida albicans) was 67% and the zone of inhibition at 100 µM (Candida albicans) was 18 mm.
`[H]/N=C(/N)N[C@H]1[C@H](O)[C@@H](O)[C@H](O[C@@H]2O[C@@H](C)[C@](O)(C=O)[C@H]2O[C@@H]2O[C@@H](CO)[C@H](O)[C@@H](O)[C@@H]2NC)[C@@H](N/C(N)=N\[H])[C@@H]1O` [Streptomycin, reference compound] showed an Inhibition % [1] of 75%, a zone of inhibition at 100 µM [1] of 24 mm and an Inhibition % (Staphylococcus Aureus) of 71%. It also gave a zone of inhibition at 100 µM (Staphylococcus Aureus) of 21 mm, an Inhibition % (Pseudomonas aeruginosa) of 71% and a zone of inhibition at 100 µM (Pseudomonas aeruginosa) of 21 mm. The zone of inhibition at 100 µM [2] was 26 mm, the Inhibition % [2] was 77% and the zone of inhibition at 100 µM (Bacillus cereus) was 21 mm. It also gave an Inhibition % (Bacillus cereus) of 71%, an Inhibition % (Escherichia coli) of 75% and a zone of inhibition at 100 µM (Escherichia coli) of 24 mm. For the same compound, the Inhibition % (Shigella flexneri) was 76% and the zone of inhibition at 100 µM (Shigella flexneri) was 25 mm.
